Test results taken from paper PMC7259601 (PLoS ONE, 2020).

How the values were obtained:
H3K9 ac = experiment: Epigenetic selectivity profile; type: biochemical; set-up: dose or concentration left out as unconfirmed
Procedure: (§1) […]. MAO-A inhibition at 10 μM was 37%, in line with internal data.

KDM1A = experiment: Ex vivo KDM1A target engagement in rat brain and PBMCs; set-up: species or system Sprague-Dawley rats
Procedure: . Native protein extracts of cells or tissues were obtained in presence of 25 nM OG-881 chemoprobe according the protocol described in Mascaró et al..
Luminescent ELISA: for quantification of total amount of KDM1A protein (TOTAL KDM1A), Luminunc Plates Maxisorp (NUNC; #436110) were coated with a monoclonal anti-KDM1A antibody (Abcam; #ab53269) at 2 µg/mL in PBS. For quantification of the fraction not bound to inhibitor (FREE KDM1A), plates were coated with streptavidin (Promega Biotech Ibérica; #Z7041) at 10 µg/mL in PBS. Coating was performed at 4°C O/N. Wells were washed 3 times in PBS, 0.1% Tween-20 and blocked with PBS-BSA 1% (Sigma; #A3059) for 2 hr. A KDM1A calibration curve of full length rKDM1A (Active Motif; #31334) diluted in PBS was included in each plate. Plates were then incubated 1 hr at RT and washed 5 times. […] Plates were centrifuged during 30 sec to 1,500 x g, shaken for 1 min at 100rpm and incubated inside the micropate reader (Infinite 200, Tecan) for 3 min at 25 °C. The relative luminescence units (RLU) readouts were acquired using a 1000 msec integration time and 150 msec settle time.
. […] After raw data processing (robust elimination of outliers according to Grubbs criteria and subtraction of blank signal on technical replicates), the target engagement was calculated as […]

[1] = system: COMT (catechol- O-methyl transferase); experiment: CEREP Diversity Panel; type: biochemical; set-up: dose or concentration left out as unconfirmed
Procedure: as §1

[2] = system: adenylyl cyclase (activator effect); experiment: CEREP Diversity Panel; type: biochemical; set-up: dose or concentration left out as unconfirmed
Procedure: as §1

ATPase (Na+/K+) = experiment: CEREP Diversity Panel; type: biochemical; set-up: dose or concentration left out as unconfirmed
Procedure: as §1

[3] = target: T1, NK3 (h) (antagonist radioligand) (Homo sapiens, UniProt P29371); experiment: CEREP Diversity Panel; type: binding
T1 construct: purchased CEREP (Eurofins Cerep)
Procedure: as §1

[4] = target: T2, NOP (ORL1) (h) (agonist radioligand) (Homo sapiens, UniProt P41146); experiment: CEREP Diversity Panel; type: binding
T2 construct: purchased CEREP (Eurofins Cerep)
T2 sequence (P41146 whole entry): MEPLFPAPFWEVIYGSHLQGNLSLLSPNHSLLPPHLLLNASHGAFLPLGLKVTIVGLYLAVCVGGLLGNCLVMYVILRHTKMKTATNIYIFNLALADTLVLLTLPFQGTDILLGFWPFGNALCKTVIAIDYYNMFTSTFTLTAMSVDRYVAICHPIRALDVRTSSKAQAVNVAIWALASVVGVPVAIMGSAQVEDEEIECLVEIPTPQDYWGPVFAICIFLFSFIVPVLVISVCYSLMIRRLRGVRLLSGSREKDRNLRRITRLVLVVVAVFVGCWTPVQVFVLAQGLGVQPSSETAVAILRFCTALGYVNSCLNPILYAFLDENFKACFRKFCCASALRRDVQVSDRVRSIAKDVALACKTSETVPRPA
Procedure: as §1

[5] = target: T3, H3 (h) (agonist radioligand) (Homo sapiens, UniProt Q9Y5N1); experiment: CEREP Diversity Panel; type: binding
T3 construct: purchased CEREP (Eurofins Cerep)
T3 sequence (Q9Y5N1 whole entry): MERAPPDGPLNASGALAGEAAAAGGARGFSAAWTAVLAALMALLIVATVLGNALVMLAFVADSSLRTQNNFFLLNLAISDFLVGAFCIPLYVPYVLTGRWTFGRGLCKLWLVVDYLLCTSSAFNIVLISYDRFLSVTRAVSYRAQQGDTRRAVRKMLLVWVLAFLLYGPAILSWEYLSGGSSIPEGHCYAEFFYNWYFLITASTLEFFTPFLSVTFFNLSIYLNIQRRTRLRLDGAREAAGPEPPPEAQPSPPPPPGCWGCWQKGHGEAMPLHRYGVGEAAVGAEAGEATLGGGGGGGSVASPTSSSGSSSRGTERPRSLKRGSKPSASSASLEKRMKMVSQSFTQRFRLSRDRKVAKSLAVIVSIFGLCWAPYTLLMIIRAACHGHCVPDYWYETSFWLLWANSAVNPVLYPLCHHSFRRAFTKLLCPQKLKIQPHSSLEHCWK
Procedure: as §1

[6] = target: T4, 5-HT transporter (h) (antagonist radioligand) (Homo sapiens, UniProt P31645); experiment: CEREP Diversity Panel; type: binding
T4 construct: purchased CEREP (Eurofins Cerep)
T4 sequence (P31645 whole entry): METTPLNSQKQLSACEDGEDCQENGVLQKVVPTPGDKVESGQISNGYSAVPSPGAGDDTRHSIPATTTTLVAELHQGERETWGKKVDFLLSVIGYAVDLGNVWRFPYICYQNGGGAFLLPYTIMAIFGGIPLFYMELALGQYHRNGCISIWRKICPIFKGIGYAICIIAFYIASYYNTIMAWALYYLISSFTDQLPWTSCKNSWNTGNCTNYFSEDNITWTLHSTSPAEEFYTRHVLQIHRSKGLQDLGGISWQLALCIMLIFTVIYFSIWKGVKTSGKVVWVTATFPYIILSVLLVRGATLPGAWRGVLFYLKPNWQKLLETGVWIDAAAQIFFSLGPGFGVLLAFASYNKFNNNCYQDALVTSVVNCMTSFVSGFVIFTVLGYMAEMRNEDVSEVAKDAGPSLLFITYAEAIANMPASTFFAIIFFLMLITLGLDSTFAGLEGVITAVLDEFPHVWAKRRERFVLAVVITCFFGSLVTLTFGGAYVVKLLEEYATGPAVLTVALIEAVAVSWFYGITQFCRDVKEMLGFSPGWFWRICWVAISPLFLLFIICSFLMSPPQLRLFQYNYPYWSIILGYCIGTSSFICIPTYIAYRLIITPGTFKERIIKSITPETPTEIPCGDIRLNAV
Procedure: as §1

[7] = target: T5, PPARg (h) (agonist radioligand) (Homo sapiens, UniProt P37231); experiment: CEREP Diversity Panel; type: binding
T5 construct: purchased CEREP (Eurofins Cerep)
T5 sequence (P37231 whole entry): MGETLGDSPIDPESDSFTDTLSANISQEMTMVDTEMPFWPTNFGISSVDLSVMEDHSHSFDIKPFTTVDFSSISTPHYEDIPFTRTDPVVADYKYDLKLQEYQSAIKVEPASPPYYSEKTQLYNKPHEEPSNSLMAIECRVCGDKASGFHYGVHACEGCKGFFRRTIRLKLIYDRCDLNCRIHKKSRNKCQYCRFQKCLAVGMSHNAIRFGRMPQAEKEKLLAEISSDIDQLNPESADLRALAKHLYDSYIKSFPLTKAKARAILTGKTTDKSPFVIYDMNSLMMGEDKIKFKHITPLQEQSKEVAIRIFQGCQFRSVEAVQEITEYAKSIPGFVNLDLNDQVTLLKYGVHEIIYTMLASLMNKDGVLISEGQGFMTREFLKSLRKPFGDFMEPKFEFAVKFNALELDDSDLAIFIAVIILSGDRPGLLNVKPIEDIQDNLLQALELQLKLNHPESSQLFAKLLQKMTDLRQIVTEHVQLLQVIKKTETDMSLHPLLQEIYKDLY
Procedure: as §1

[8] = target: T6, CRF1 (h) (agonist radioligand) (Homo sapiens, UniProt P34998); experiment: CEREP Diversity Panel; type: binding
T6 construct: purchased CEREP (Eurofins Cerep)
T6 sequence (P34998 24-415): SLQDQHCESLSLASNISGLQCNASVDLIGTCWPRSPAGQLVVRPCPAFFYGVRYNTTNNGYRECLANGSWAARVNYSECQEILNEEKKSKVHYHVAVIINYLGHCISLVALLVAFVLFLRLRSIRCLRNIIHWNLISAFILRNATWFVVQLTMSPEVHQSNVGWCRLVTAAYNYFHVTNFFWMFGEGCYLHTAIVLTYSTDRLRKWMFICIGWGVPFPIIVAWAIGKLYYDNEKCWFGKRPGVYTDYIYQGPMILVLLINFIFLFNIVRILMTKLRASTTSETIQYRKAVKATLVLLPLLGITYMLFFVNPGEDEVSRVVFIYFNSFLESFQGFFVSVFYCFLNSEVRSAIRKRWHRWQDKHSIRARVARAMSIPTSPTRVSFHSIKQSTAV
Procedure: as §1

[9] = target: T7, H1 (h) (antagonist radioligand) (Homo sapiens, UniProt P35367); experiment: CEREP Diversity Panel; type: binding
T7 construct: purchased CEREP (Eurofins Cerep)
Procedure: as §1

[10] = target: T8, N neuronal a 4b 2 (h) (agonist radioligand) (Homo sapiens, UniProt P17787+P43681); experiment: CEREP Diversity Panel; type: binding
T8 construct: purchased CEREP (Eurofins Cerep)
Procedure: as §1

[11] = target: T9, CCK1 (CCKA) (h) (agonist radioligand) (Homo sapiens, UniProt P32238); experiment: CEREP Diversity Panel; type: binding
T9 construct: purchased CEREP (Eurofins Cerep)
T9 sequence (P32238 whole entry): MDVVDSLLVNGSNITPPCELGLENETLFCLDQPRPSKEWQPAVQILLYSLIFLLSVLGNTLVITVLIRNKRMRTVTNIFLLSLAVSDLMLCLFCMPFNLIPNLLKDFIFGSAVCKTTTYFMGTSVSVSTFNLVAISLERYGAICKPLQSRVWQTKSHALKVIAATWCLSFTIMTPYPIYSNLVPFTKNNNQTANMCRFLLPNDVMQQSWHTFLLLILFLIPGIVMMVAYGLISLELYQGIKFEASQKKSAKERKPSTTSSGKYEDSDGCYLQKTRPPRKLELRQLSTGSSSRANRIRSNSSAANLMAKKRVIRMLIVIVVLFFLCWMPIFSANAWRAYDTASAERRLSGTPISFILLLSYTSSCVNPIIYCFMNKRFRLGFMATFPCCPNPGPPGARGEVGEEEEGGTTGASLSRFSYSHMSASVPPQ
Procedure: as §1

[12] = target: T10, PAR1 (h) (agonist radioligand) (Homo sapiens, UniProt P25116); experiment: CEREP Diversity Panel; type: binding
T10 construct: purchased CEREP (Eurofins Cerep)
T10 sequence (P25116 22-425): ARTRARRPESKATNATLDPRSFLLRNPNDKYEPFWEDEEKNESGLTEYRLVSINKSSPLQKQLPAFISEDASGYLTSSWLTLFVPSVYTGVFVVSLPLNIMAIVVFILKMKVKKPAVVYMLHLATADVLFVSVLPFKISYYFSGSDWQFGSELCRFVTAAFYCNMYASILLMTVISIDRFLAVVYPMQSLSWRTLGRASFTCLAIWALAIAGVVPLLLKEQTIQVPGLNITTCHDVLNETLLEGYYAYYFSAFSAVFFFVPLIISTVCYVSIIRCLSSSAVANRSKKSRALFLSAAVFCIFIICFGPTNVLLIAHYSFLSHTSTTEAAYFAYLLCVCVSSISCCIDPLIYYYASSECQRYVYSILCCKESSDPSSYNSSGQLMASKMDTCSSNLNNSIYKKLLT
Procedure: as §1

[13] = target: T11, ETA (h) (agonist radioligand) (Homo sapiens, UniProt P25101); experiment: CEREP Diversity Panel; type: binding
T11 construct: purchased CEREP (Eurofins Cerep)
Procedure: as §1

[14] = target: T12, D4.4 (h) (antagonist radioligand) (Homo sapiens, UniProt P21917); experiment: CEREP Diversity Panel; type: binding
T12 construct: purchased CEREP (Eurofins Cerep)
T12 sequence (P21917 whole entry): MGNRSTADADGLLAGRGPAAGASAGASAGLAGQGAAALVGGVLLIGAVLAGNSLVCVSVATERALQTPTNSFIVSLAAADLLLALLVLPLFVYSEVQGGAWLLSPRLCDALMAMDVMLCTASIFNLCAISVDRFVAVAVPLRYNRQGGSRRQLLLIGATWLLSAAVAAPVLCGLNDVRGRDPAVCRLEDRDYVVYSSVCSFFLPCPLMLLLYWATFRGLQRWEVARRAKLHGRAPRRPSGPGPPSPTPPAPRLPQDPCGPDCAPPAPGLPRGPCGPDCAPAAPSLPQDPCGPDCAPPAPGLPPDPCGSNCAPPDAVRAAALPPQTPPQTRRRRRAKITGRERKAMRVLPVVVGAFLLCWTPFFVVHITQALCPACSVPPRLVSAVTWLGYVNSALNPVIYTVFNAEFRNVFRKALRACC
Procedure: as §1

[15] = target: T13, D3 (h) (antagonist radioligand) (Homo sapiens, UniProt P35462); experiment: CEREP Diversity Panel; type: binding
T13 construct: purchased CEREP (Eurofins Cerep)
Procedure: as §1

[16] = target: T14, PR (h) (agonist radioligand) (Homo sapiens, UniProt P06401); experiment: CEREP Diversity Panel; type: binding
T14 construct: purchased CEREP (Eurofins Cerep)
Procedure: as §1

[17] = target: T15, NK1 (h) (agonist radioligand) (Homo sapiens, UniProt P25103); experiment: CEREP Diversity Panel; type: binding
T15 construct: purchased CEREP (Eurofins Cerep)
Procedure: as §1

[18] = target: T16, TRH1 (h) (agonist radioligand) (Homo sapiens, UniProt P34981); experiment: CEREP Diversity Panel; type: binding
T16 construct: purchased CEREP (Eurofins Cerep)
T16 sequence (P34981 whole entry): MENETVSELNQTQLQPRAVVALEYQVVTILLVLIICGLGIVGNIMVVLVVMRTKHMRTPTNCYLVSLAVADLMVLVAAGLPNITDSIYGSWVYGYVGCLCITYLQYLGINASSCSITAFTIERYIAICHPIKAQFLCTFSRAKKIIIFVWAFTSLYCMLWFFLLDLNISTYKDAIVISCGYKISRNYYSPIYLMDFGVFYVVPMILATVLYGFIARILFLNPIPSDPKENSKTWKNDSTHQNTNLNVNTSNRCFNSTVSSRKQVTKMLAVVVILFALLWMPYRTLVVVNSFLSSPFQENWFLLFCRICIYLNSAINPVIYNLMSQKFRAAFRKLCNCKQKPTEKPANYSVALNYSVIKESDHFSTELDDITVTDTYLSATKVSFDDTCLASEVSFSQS
Procedure: as §1

[19] = target: T17, AT1 (h) (antagonist radioligand) (Homo sapiens, UniProt P30556); experiment: CEREP Diversity Panel; type: binding
T17 construct: purchased CEREP (Eurofins Cerep)
Procedure: as §1

[20] = target: T18, choline transporter (CHT1) (h) (antagonist radioligand) (Homo sapiens, UniProt Q9GZV3); experiment: CEREP Diversity Panel; type: binding
T18 construct: purchased CEREP (Eurofins Cerep)
T18 sequence (Q9GZV3 whole entry): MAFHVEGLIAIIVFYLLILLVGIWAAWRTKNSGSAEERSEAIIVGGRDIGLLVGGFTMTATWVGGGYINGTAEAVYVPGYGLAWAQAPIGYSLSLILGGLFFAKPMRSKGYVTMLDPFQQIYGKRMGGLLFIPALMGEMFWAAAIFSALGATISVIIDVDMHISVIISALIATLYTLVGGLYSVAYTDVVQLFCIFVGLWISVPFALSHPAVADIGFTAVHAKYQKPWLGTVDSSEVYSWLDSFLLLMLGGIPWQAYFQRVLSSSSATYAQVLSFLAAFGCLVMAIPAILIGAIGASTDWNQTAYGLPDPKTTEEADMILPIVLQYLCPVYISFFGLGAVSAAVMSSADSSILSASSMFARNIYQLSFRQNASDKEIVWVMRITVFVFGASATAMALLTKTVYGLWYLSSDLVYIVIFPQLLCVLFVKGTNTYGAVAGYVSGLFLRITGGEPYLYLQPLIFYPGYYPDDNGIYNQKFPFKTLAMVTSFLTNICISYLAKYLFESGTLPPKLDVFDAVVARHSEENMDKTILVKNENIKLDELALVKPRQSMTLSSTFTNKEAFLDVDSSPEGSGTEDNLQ
Procedure: as §1

[21] = target: T19, B2 (h) (agonist radioligand) (Homo sapiens, UniProt P30411); experiment: CEREP Diversity Panel; type: binding
T19 construct: purchased CEREP (Eurofins Cerep)
Procedure: as §1

[22] = target: T20, CysLT1 (LTD4) (h) (agonist radioligand) (Homo sapiens, UniProt Q9Y271); experiment: CEREP Diversity Panel; type: binding
T20 construct: purchased CEREP (Eurofins Cerep)
Procedure: as §1

[23] = target: T21, MC4 (h) (agonist radioligand) (Homo sapiens, UniProt P32245); experiment: CEREP Diversity Panel; type: binding
T21 construct: purchased CEREP (Eurofins Cerep)
T21 sequence (P32245 whole entry): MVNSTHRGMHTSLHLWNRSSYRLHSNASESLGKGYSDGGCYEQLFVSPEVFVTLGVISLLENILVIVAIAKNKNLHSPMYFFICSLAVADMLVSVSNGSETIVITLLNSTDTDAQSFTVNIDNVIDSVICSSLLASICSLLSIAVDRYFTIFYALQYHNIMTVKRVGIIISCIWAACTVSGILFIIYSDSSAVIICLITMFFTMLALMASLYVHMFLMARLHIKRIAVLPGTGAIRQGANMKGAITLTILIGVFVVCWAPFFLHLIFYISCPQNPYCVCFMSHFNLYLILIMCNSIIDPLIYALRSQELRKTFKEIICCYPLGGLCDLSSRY
Procedure: as §1

[24] = target: T22, A1 (h) (antagonist radioligand) (Homo sapiens, UniProt P30542); experiment: CEREP Diversity Panel; type: binding
T22 construct: purchased CEREP (Eurofins Cerep)
Procedure: as §1

[25] = system: AR (h) (agonist radioligand); experiment: CEREP Diversity Panel; type: binding, human; set-up: dose or concentration left out as unconfirmed
Procedure: as §1

[26] = system: ER (non-selective) (h) (agonist radioligand); experiment: CEREP Diversity Panel; type: binding, human; set-up: dose or concentration left out as unconfirmed
Procedure: as §1

Nc1nnc(CN[C@@H]2C[C@H]2c2ccc(OCc3ccccc3)cc2)o1 [ORY-2001, vafidemstat]
% inhibition (H3K9 ac): -5% | time for brain target engagement levels to return to baseline (KDM1A; S2B Fig): ~ 3 days | time to maximum target engagement (KDM1A; rat PBMCs and brain, days of administration): 5 days | % inhibition [1]: 11% | % inhibition [2]: 0% | % inhibition (ATPase (Na+/K+)): 4% | inhibition at 10 µM [3]: 2% | inhibition at 10 µM [4]: 0% | inhibition at 10 µM [5]: -1% | inhibition at 10 µM [6]: 2% | inhibition at 10 µM [7]: 4% | inhibition at 10 µM [8]: 18% | inhibition at 10 µM [9]: -9% | inhibition at 10 µM [10]: -3% | inhibition at 10 µM [11]: -2% | inhibition at 10 µM [12]: -2% | inhibition at 10 µM [13]: -23% | inhibition at 10 µM [14]: 9% | inhibition at 10 µM [15]: 8% | inhibition at 10 µM [16]: -11% | inhibition at 10 µM [17]: 3% | inhibition at 10 µM [18]: 3% | inhibition at 10 µM [19]: -2% | inhibition at 10 µM [20]: -2% | inhibition at 10 µM [21]: -5% | inhibition at 10 µM [22]: 4% | inhibition at 10 µM [23]: 7% | inhibition at 10 µM [24]: 0% | % inhibition [25]: -2% | % inhibition [26]: 13%
